# Read-outs that look alike come from different tables or passages of the source.
# Key:
# [1] = in vitro; settings: human, hepg2 cells
# [2] = system: HepG2; settings: human, hepg2 cells, 48 h
# [3] = in vitro; settings: human, HepG2-A16-CD81EGFP cells, uninfected
# [4] = system: P. berghei-ANKA-GFP-LucCON liver stage parasites in HepG2-A16-CD81EGFP cells; assay: P. berghei liver stage Pb-Luc assay, Method 1 (UCSD, 1536-well); format: cell-based, Plasmodium berghei; settings: Plasmodium berghei; for activity at 1 µM / activity at 3 µM: 48 h, average of 2 wells, 1536-well plate; for activity at 1 µM: nominal 1 uM (10 mM stock), […] for 15 mM, 1.2 uM for 12 mM, 2 uM for 20 mM stock; for activity at 3 µM: nominal 3 uM (10 mM stock), 4.5 uM for 15 mM, 3.6 uM for 12 mM, 6 uM for 20 mM stock; for AC50: Method 1
# [5] = system: HepG2-A16-CD81EGFP cells; settings: average of 2 wells, repeat 2; for HepG2 viability signal, 1 uM, repeat 2: nominal 1 uM (10 mM stock), […] for 15 mM, 1.2 uM for 12 mM, 2 uM for 20 mM stock; for HepG2 viability signal, 3 uM, repeat 2: nominal 3 uM (10 mM stock), 4.5 uM for 15 mM, 3.6 uM for 12 mM, 6 uM for 20 mM stock
# [6] = system: Plasmodium falciparum Dd2 asexual blood stage parasites; assay: microbe, parasite or virus in culture; design: species or system Plasmodium falciparum Dd2 in human erythrocytes; single determination (one 11-point concentration-response curve); settings: Plasmodium falciparum, DD2, Erythrocyte, 72 h; read-out: AC50
# [7] = system: P. falciparum Dd2 Cytb V259L; assay: SYBR Green ABS proliferation assay, NCGC00473217 selected clone F06; format: cell-based, Plasmodium falciparum; settings: Plasmodium falciparum
# Description: (§1) As resistance selection studies implicated the parasite cytochrome bc1 complex in mediating reduced parasite susceptibility to both NCGC00473217 and NCGC00374598, we leveraged these drug-selected parasites to test for altered drug response to a panel of antimalarial compounds.
# (§2) The P. falciparum parasite Dd2 line was cultured in vitro using standard conditions. […] Tissue culture flasks and assay plates were incubated at 37 °C under a gas mixture of 5% CO2, 5% O2 and 90% N2. […] Significant differences were assessed using two-sided Student’s t-tests. All HTS assays were stopped and read at 72 h. Percent response values represent relative growth as judged by SYBR Green-I fluorescence intensity values normalized to controls.
# (§3) Fresh uninfected RBCs (0.5% hematocrit) were added on day 7 and media was changed every other day. […] Resistant parasites were maintained under drug media at a volume of 50 mL until a high parasitemia (> 5%) was achieved. Aliquots of the bulk resistant cultures were frozen in cryovials before cloning by limiting dilution in 96-well plates (seeded at 0.25 or 0.5 parasites/well)[70]. After 3 weeks of cloning, we screened for positive wells by flow cytometry with SYBR Green-stained cells. […] Parasites were harvested by saponin lysis at the trophozoite stage and genomic DNA was extracted using the QIAamp DNA Blood Midi Kit (Qiagen, Germantown, MD)[71].
# [8] = system: P. falciparum Dd2 Cytb G131S; assay: SYBR Green ABS proliferation assay, NCGC00374598 selected clone C11; format: cell-based, Plasmodium falciparum; settings: Plasmodium falciparum
# Description: as §1, §2, §3
# [9] = system: P. falciparum Dd2 (clone B2) asexual blood stage parasites; assay: P. falciparum Dd2 asexual blood stage SYBR Green-I 72 h proliferation assay (qHTS); format: cell-based, Plasmodium falciparum; settings: Plasmodium falciparum, DD2, Dd2 parental; Hill fit, averaged from three independent replicates; top concentration 29 µM; read-out: Average AC50 (Log[M]), Dd2 (converted)
# [10] = repeat 1, read-out: Pb-Luc signal, 1 uM, repeat 1
# [11] = repeat 2, read-out: Pb-Luc signal, 1 uM, repeat 2
# [12] = repeat 3, read-out: Pb-Luc signal, 1 uM, repeat 3
# [13] = repeat 1, read-out: Pb-Luc signal, 3 uM, repeat 1
# [14] = repeat 2, read-out: Pb-Luc signal, 3 uM, repeat 2
# [15] = repeat 3, read-out: Pb-Luc signal, 3 uM, repeat 3
# [16] = DD2, […], averaged from three independent replicates, top concentration 29 µM, read-out: Average AC50 (Log[M]), NCGC00374598 clone C11 (Cytb G131S) (converted)
# [17] = DD2, […], averaged from three independent replicates, top concentration 29 µM, read-out: Average AC50 (Log[M]), NCGC00473217 clone F06 (Cytb V259L) (converted)
Log AC50 (M) [2],SMILES,CC50 at 48 h [1],also measured
-4.4643 M,CC(C)c1nc(-c2ccc(OC3CCN(C(=O)c4cc(F)ccc4F)C3)cc2)no1 (centres unmarked) [NCGC00441011-01],34.3 µM,
-4.3643 M,CCc1nnc(NC(=O)c2cc(Cl)ccn2)s1 [MLS001175292-01],43.2 µM,
-4.3643 M,Brc1ccc2[nH]c3c(N4CCc5ccccc5C4)ncnc3c2c1 [MLS000556376-01],43.2 µM,
-4.9143 M,Cc1cc(C)n(-c2nc3ccccc3c(=O)n2OCC#N)n1 [MLS001215162-01],12.2 µM,
-4.9143 M,Nc1nc(N)c2c(ccc3[nH]ccc32)n1 [MLS000758537-01],12.2 µM,
-4.3643 M,CCN(CC)CCCNC(=O)c1ccc2c(c1)sc1nc(-c3ccc(C)cc3)cn12 [NCGC00121667-01],43.2 µM,
-4.3643 M,C[S+](=O)([O-])N1CCC(OC2CCN(C(=O)Nc3cc(F)ccc3F)CC2)CC1 [NCGC00445092-01],43.2 µM,
,Cc1nn2c(c1-c1ccccc1Oc1ccccc1)N(Cc1ccccc1O)CCC2 [NCGC00420455-01],> 57 µM,"viability at 48 h, 1 µM [3]: 104%; viability at 48 h, 3 µM [3]: 115%; activity at 1 µM [4, 10]: 75.6%; activity at 1 µM [4, 11]: 75%; activity at 1 µM [4, 12]: 78.3%; activity at 3 µM [4, 13]: 1.18%; activity at 3 µM [4, 14]: 4.89%; activity at 3 µM [4, 15]: 23.7%; AC50 ([4]; Hill fit, 50% of maximum activity response, read-out: AC50): 1.41 µM; AC50 ([4]; log10 of molar AC50 from Hill fit, read-out: Log AC50 (converted)): 1.41 µM; HepG2 viability signal, 1 uM, repeat 2 [5]: 99.80%; HepG2 viability signal, 3 uM, repeat 2 [5]: 116.91%; AC50 [6]: 4.85 µM"
-4.3643 M,CCOC(=O)c1ccc(N2C(=O)c3[nH]nc(-c4ccc(OC)cc4)c3C2c2cccc(O)c2)cc1 (centres unmarked) [NCGC00108527-01],43.2 µM,
-4.4643 M,Cc1ccc(NC(=O)C2CCN(c3cc(C(F)(F)F)ncn3)CC2)cc1 [NCGC00455557-01],34.3 µM,
-4.5143 M,COc1cccc(-c2noc(CCCc3nc(-c4cccnn4)no3)n2)c1 [NCGC00435845-01],30.6 µM,
,CCCN1C(CC(C)C)=N[S+](=O)([O-])c2cc(NC(=O)c3cccc(C#N)c3)ccc21 [NCGC00531772-01],,"AC50 ([7]; DD2, cytochrome b mutant line, third value triple, c9, […], read-out: log AC50, mean (converted)): 8.93e-07 M; AC50 ([8]; DD2, cytochrome b mutant line, second value triple, c6, […], read-out: log AC50, mean (converted)): 2.67e-07 M"
-4.4643 M,O=C(Nc1ccc(Cl)cc1)N1CCC(c2nc(-c3ccccc3Cl)no2)CC1 [MLS000529331-01],34.3 µM,
-4.3643 M,CC(C(=O)N1CCCN(c2cc(-c3ccc(Cl)cc3)n[nH]2)CC1)c1ccccc1 (centres unmarked) [NCGC00436178-01],43.2 µM,
-4.3643 M,O=C(c1ccco1)N1CCCN(c2cc(-c3ccc(Br)cc3)n[nH]2)CC1 [NCGC00436196-01],43.2 µM,
-4.8643 M,CCc1nnc([C@@H]2CC(F)(F)CN2Cc2cccn2C)o1 [NCGC00468656-01],13.7 µM,
-4.3643 M,CCC(C(=O)N1CCN(c2cc(-c3cccs3)n[nH]2)CC1)c1ccccc1 (centres unmarked) [NCGC00436744-01],43.2 µM,
-4.5143 M,O=C(c1n[nH]c2c1CCCC2)N1CCC(n2cc(-c3nc(-c4ccccc4)no3)nn2)CC1 [NCGC00454851-01],30.6 µM,

Log AC50 (M) [2],SMILES,CC50 at 48 h [1],also measured
-4.3643 M,COc1cc(NC(=O)Cn2c(N(C)Cc3ccccc3)nc(C)cc2=O)cc(OC)c1 [NCGC00432301-01],43.2 µM,
-4.3643 M,O=C(Nc1cccc(C(F)(F)F)c1)C1CCN([S+](=O)([O-])c2cccc3nsnc23)CC1 [NCGC00108239-01],43.2 µM,
-4.5143 M,Cc1nc(C)c(C(=O)N2CC(Oc3ccc(-c4noc(-c5ccccc5)n4)cc3)C2)s1 [NCGC00458037-01],30.6 µM,
-4.9143 M,O=C1CCN(Cc2ccc(F)cc2F)CCCC(c2nc(-c3cnccn3)no2)CCN1 (centres unmarked) [NCGC00465975-01],12.2 µM,
-4.4643 M,CCCCCCc1cc2cc(-c3nnc(-c4ccc(C)cc4)o3)c(=O)oc2cc1O [NCGC00098410-01],34.3 µM,
-4.4143 M,COc1cnc(-c2ccccn2)nc1Oc1ccc(C(C)(C)C)cc1 [MLS001165485-01],38.5 µM,
-4.3643 M,COc1ccc(C(=O)N2CCC(n3cc(-c4nc(-c5ccccc5)no4)nn3)C2)cc1 (centres unmarked) [NCGC00455125-01],43.2 µM,
,CCCN1C(C)=N[S+](=O)([O-])c2cc(NC(=O)c3cccs3)ccc21 [NCGC00522606-01],,"AC50 [8, 16]: 2e-06 M; AC50 [9]: 8.93e-06 M"
,CCCN1C(CC(C)C)=N[S+](=O)([O-])c2cc(N[S+](=O)([O-])c3ccccc3)ccc21 [NCGC00521146-01],,"AC50 [8, 16]: 7.1e-06 M; AC50 [9]: 7.96e-06 M"
,COc1ccc(N2CCN(c3cc(C4CC(N)C4)nc(N)n3)CC2(C)C)cc1 (centres unmarked) [NCGC00422579-01],> 57 µM,"viability at 48 h, 1 µM [3]: 103%; viability at 48 h, 3 µM [3]: 102%; activity at 1 µM [4, 10]: 82.6%; activity at 1 µM [4, 11]: 91.8%; activity at 1 µM [4, 12]: 99.3%; activity at 3 µM [4, 13]: 76.6%; activity at 3 µM [4, 14]: 88.5%; activity at 3 µM [4, 15]: 81.6%; HepG2 viability signal, 1 uM, repeat 2 [5]: 102.33%; HepG2 viability signal, 3 uM, repeat 2 [5]: 97.69%; AC50 [6]: 2.99 µM"
,CN1C(CCl)Nc2cc(Cl)c([S+](N)(=O)[O-])cc2[S+]1(=O)[O-] (centres unmarked) [NCGC00167446-03],,"AC50 [7, 17]: 3.17e-08 M; AC50 [8, 16]: 3.17e-08 M; AC50 [9]: 2.82e-08 M"
,CCCN1C(CC(C)C)=N[S+](=O)([O-])c2cc(NC(=O)C3CCOCC3)ccc21 [NCGC00521138-01],,"AC50 [7, 17]: 1.22e-05 M; AC50 [8, 16]: 3.99e-06 M"
,CCCN1C(CC(C)C)=N[S+](=O)([O-])c2cc(N[S+](=O)([O-])c3ccccc3C)ccc21 [NCGC00521140-01],,"AC50 [7, 17]: 1e-05 M"
,N[S+](=O)([O-])c1cc2c(cc1Cl)N=CN[S+]2(=O)[O-] [NCGC00015242-14],,"AC50 [8, 16]: 7.1e-07 M; AC50 [9]: 2e-06 M"
,CCCN1C(CC(C)C)=N[S+](=O)([O-])c2cc(N[S+](=O)([O-])c3cc4ccccc4s3)ccc21 [NCGC00521156-01],,"AC50 [8, 16]: 1e-06 M; AC50 [9]: 1.26e-06 M"
,CCCN1C(C)=N[S+](=O)([O-])c2cc(NC(=O)c3ccc(F)cc3)ccc21 [NCGC00522607-01],,"AC50 [8, 16]: 1.26e-06 M; AC50 [9]: 1.12e-06 M"
,CCCN1C(CC(C)C)=N[S+](=O)([O-])c2cc(NC(=O)C(=O)OCC)ccc21 [NCGC00521135-01],,"AC50 [8, 16]: 7.96e-06 M; AC50 [9]: 1.59e-05 M"
,CCCN1C(CC(C)C)=N[S+](=O)([O-])c2cc(N[S+](=O)([O-])c3ccc(Cl)s3)ccc21 [NCGC00521874-01],,"AC50 [7, 17]: 7.1e-07 M; AC50 [8, 16]: 8.93e-07 M; AC50 [9]: 1.42e-06 M"
